Laboratory results reported in patent US20250154141A1 (University of Florida Research Foundation, Incorporated, priority 2021, published 2025).
Like-named read-outs stand apart in the source and are kept apart here.

Experiments:
MOLT-4 = experiment: Cell viability assay (MTS) in MOLT-4 cells; assay type: cell-based; conditions: Homo sapiens
Description: (§1) Acute lymphoblastic leukemia cells (MOLT-4 and RS4; 11) were incubated with increasing concentrations of Bcl-xL degraders for 48 h. Cell viability was measured by tetrazolium-based MTS assay.

RS4; 11 = experiment: Cell viability assay (MTS) in RS4; 11 cells; assay type: cell-based; conditions: Homo sapiens
Description: as §1

[1] = target: VCB E3 ligase complex and Bcl-xL (Homo sapiens, UniProt P40337+Q07817); experiment: Ternary complex assay (AlphaLISA); assay type: binding; conditions: FIG. 5A
Description: To detect ternary complex formation induced by the compounds, AIphaLISA assay was used to measure luminescence signals arisen from proximity of Bcl-xL bounded acceptor beads and VHL- or CRBN—bounded donor beads. Briefly, to a 96-well PCR plate, 10 μL of 20 nM 6-His tagged Bcl-xL protein can be mixed with 10 μL of 20 nM GST-tagged VHL complex protein and 10 μL of serially diluted testing compounds. After incubating at room temperature for 30 […], 5 μL of 160 μg/mL Glutathione donor beads (PerkinEImer) was added and the mixture was incubated at dark for 15 min. 5 μL of 160 μg/mL of anti-His acceptor beads was added lastly and the mixture was incubated for an additional 45 min before being transferred to two adjacent wells (17 μL each) of 384-well white OptiPIate (PerkinEImer). The luminescence signals were detected on a Biotek's Synergy Neo2 multi-mode plate reader installed with an AphaScreen filter cube. All reagents were diluted in an assay buffer of 25 mM HEPES, pH 7.5, 100 mM NaCl, 0.1% BSA, and 0.005% tween 20 prior incubation.

Bcl-xL [2] = target: T1, Bcl-xL (Homo sapiens, UniProt Q07817); experiment: Protein degradation assay in Jurkat cells (Western blot), Bcl-xL; assay type: cell-based; parameters: endogenous in cells; host or cells: Jurkat cells; conditions: for degradation of Bcl-xL (immunoblot): FIGS. 2-3, increasing concentrations 16 hours, 100 nM for various durations; for duration of Bcl-xL degradation after wash-off: FIGS. 2C, 3C, 16 h treatment, cultured without compound 0 to 48
Description: (§2) Jurkat cells and human platelets were incubated with increasing concentrations of test compounds for 16 h. The cells were harvested and lysed in RIPA lysis buffer supplemented with protease and phosphatase inhibitor cocktails. An equal amount of protein ([…]) was resolved on a pre-cast 4-20% SDS-PAGE gel. Proteins were subsequently transferred to NOVEX PVDF membranes by electrophoresis. The membranes were blocked in blocking buffer (5% non-fat dry milk in TBS-T), and incubated with primary antibodies (at optimized concentrations) overnight at 4° C. After three washings in TBS-T, the membranes were incubated with an appropriate FIRP-conjugated secondary antibody for 1 h at room temperature. After extensive washing for three times, the proteins of interest was detected with ECL western blotting detection reagents and recorded with autoradiography (Pierce Biotech, Rockford, IL, USA). The primary antibodies for Bcl-xL (Cat #2762), Bcl-2 (Cat #2872), Mcl-1 (Cat #5453) and j-actin (Cat #4970) were purchased from Cell Signaling Technology. The relative band intensity was measured using ImageJ software and normalized to β-actin.

Bcl-2 [3] = target: T2, Bcl-2 (Homo sapiens, UniProt P10415); experiment: Protein degradation assay in Jurkat cells (Western blot), Bcl-2; assay type: cell-based; parameters: endogenous in cells; host or cells: Jurkat cells; conditions: for degradation of Bcl-2 (immunoblot): FIGS. 2-3, increasing concentrations 16 hours, 100 nM for various durations; for duration of Bcl-2 degradation after wash-off: FIGS. 2C, 3C, 16 h treatment, cultured without compound 0 to 48
Description: as §2

Bcl-xL [4] = target: T1, Bcl-xL; experiment: Protein degradation assay in human platelets (Western blot), Bcl-xL; assay type: cell-based; parameters: endogenous in cells; host or cells: human platelets; conditions: FIG. 4, 16 h
Description: as §2

Bcl-2 [5] = target: T2, Bcl-2; experiment: Protein degradation assay in human platelets (Western blot), Bcl-2; assay type: cell-based; parameters: endogenous in cells; host or cells: human platelets; conditions: FIG. 4, 16 h
Description: as §2

human platelets = experiment: Platelet toxicity assay (MTS viability); assay type: cell-based; conditions: for IC50: Platelet, human platelets, 48 h; for Platelets/MOLT-4 IC50 Fold change: ratio of platelet IC50 to MOLT-4 IC50
Description: Platelet-rich plasma (PRP) was purchased from Life South Community Blood Centers (Gainesville, FL, USA). PRP was transferred into a 50 mL tube containing 5 mL of the acid citrate buffer (Cat. No. sc-214744, Santa Cruz Biotechnology). To prevent clotting, prostaglandin E1 (PGE1, Cat. No. sc-201223A, Santa Cruz Biotechnology, Dallas, TX, USA) and apyrase (Cat. No. A6237, Sigma-Aldrich, St. Louis, MO, USA) were added to final concentrations of […] and 0.2 U/mL, respectively. After gently mixing the solution, platelets were pelleted by centrifugation at 1200 g for 10 min without break. Pelleted platelets were gently washed without disturbing platelets using 2 mL of HEPES Tyrode's buffer (Cat. No. PY-921WB, Boston BioProducts, Ashland, MA, USA) containing […] PGE1 and 0.2 U/mL apyrase. After washing, pellets were gently suspended in 10 mL of HEPES Tyrode's buffer containing […] PGE1 and 0.2 U/mL apyrase. Then, the platelet number was counted using a HEMAVET 950FS hematology analyzer (Drew Scientific, Inc., Oxford, CT, USA). For viability assays, the platelet number was adjusted to 2×10^8/mL in HEPES Tyrode's buffer containing […] PGE1 and 0.2 U/mL apyrase. Each treatment was given in 2 mL of the platelet suspension in 15 mL polypropylene tubes. The tubes were placed on a rotating platform at room temperature, and the viability of platelets was measured after 48 h treatment by using the MTS reagent (Cat. No. G1111, Promega, Madison, WI, USA). The data were analyzed by the GraphPad Prism 7 software for the calculation of IC50 values.

T2 sequence (P10415 whole entry): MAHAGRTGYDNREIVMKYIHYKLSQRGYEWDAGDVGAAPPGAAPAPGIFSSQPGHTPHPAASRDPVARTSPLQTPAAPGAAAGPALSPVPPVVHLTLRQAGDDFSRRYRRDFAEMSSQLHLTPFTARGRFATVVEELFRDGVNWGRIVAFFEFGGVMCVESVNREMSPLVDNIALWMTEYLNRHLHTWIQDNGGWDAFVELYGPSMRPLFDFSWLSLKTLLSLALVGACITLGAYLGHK
T1 sequence (Q07817 whole entry): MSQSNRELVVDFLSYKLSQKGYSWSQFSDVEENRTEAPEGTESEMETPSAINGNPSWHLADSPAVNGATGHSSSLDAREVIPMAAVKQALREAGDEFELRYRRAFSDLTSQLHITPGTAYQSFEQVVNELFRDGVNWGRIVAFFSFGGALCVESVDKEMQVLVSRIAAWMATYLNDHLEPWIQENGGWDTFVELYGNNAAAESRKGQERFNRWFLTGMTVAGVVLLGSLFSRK
Chain of VCB E3 ligase complex and Bcl-xL (Q07817 whole entry): as above
Chain of VCB E3 ligase complex and Bcl-xL (P40337 whole entry): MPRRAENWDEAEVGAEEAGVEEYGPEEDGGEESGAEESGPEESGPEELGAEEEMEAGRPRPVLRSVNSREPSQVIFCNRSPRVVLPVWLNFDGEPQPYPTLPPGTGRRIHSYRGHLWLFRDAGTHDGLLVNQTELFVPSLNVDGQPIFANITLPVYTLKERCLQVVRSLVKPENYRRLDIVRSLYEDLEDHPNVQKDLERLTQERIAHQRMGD
Chain of VCB E3 ligase complex and Bcl-xL (Q15370 whole entry partner): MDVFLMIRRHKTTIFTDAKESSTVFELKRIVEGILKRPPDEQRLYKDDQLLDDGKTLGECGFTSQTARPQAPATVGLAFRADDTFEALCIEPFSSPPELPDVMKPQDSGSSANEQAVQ
Chain of VCB E3 ligase complex and Bcl-xL (Q15369 whole entry partner): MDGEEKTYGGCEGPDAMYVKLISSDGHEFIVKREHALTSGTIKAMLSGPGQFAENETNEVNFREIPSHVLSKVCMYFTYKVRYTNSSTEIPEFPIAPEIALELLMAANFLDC

Row | IC50 (MOLT-4; MOLT-4, Table 2, 48 hr, MTS, read-out: Anti-Cancer Activity IC50 (48 hr) MOLT-4) [µM] | IC50 (RS4; 11; RS4-11, Table 2, 48 hr, MTS, read-out: Anti-Cancer Activity IC50 (48 hr) RS4, 11) [µM] | ternary complex formation with the VCB E3 ligase complex and Bcl-xL [1] | Structure (SMILES) | degradation of Bcl-xL (immunoblot) (Bcl-xL [2]) | duration of Bcl-xL degradation after wash-off (Bcl-xL [2]) | degradation of Bcl-2 (immunoblot) (Bcl-2 [3]) | duration of Bcl-2 degradation after wash-off (Bcl-2 [3]) | Bcl-xL expression levels in human platelets (Bcl-xL [4]) | Bcl-2 expression levels in human platelets (Bcl-2 [5]) | IC50 (MOLT-4; MOLT-4, 48 h, read-out: Anti-Cancer Activity IC50 (48 hr) MOLT-4) [µM] | IC50 (MOLT-4; MOLT-4, 48 h, read-out: MOLT-4 48 h IC50) [µM] | IC50 (RS4; 11; RS4-11, 48 h, read-out: Anti-Cancer Activity IC50 (48 hr) RS4, 11) [µM] | IC50 (RS4; 11; RS4-11, 48 h, read-out: RS4 48 h IC50) [µM] | IC50 (human platelets; Table 3, mean of two independent experiments in triplicates, read-out: Platelets 48 h IC50) [µM] | IC50 (human platelets; Table 6, 4 th time, read-out: Platelets 4 th time 48 h IC50) [µM] | Platelets/MOLT-4 IC50 Fold change (human platelets; Table 3) | Platelets/MOLT-4 IC50 Fold change (human platelets; Table 6) | degradation of BCL-XL by Western blotting analysis (Bcl-xL [2]; FIG. 1, 16 hours) | degradation of BCL-2 by Western blotting analysis (Bcl-2 [3]; FIG. 1, 16 hours)
1 | < 0.02 | < 0.02 | formed ternary complexes | Cc1ncsc1-c1ccc([C@H](C)NC(=O)[C@@H]2C[C@@H](O)CN2C(=O)[C@@H](NC(=O)CN2CCN(CC(=O)N3CCN(C[C@]4(C)CCC(c5ccc(Cl)cc5)=C(CN5CCN(c6ccc(C(=O)NS(=O)(=O)c7ccc(N[C@H](CCN8CCCOCC8)CSc8ccccc8)c(S(=O)(=O)C(F)(F)F)c7)cc6)CC5)C4)CC3)CC2)C(C)(C)C)cc1 [Compound 77] | dose- and time-dependently degraded | long-lasting | dose- and time-dependently degraded | long-lasting | do not affect | do not affect | – | – | – | – | – | – | – | – | – | –
2 | – | – | – | Cc1ncsc1-c1ccc([C@H](C)NC(=O)[C@@H]2C[C@@H](O)CN2C(=O)[C@@H](NC(=O)CN2CCN(CC(=O)N3CCN(CC4(C)CCC(c5ccc(Cl)cc5)=C(CN5CCN(c6ccc(C(=O)NS(=O)(=O)c7ccc(N[C@H](CCN8C[C@H]9C[C@@H]8CO9)CSc8ccccc8)c(S(=O)(=O)C(F)(F)F)c7)cc6)CC5)C4)CC3)CC2)C(C)(C)C)cc1 (stereo partly shown) [Compound 68] | dose- and time-dependently degraded | long-lasting | dose- and time-dependently degraded | long-lasting | do not affect | do not affect | < 0.02 | 0.0032 | < 0.02 | 0.005 | 0.777 | 0.777 | 240 | 240 | exemplary degradation | exemplary degradation
